Measurements from publication PMC7400457, “Profiling and Identification of Omeprazole Metabolites in Mouse Brain and Plasma by Isotope Ratio-Monitoring Liquid Chromatography-Mass Spectrometric Method” (Life, 2020).

Assay: In vivo metabolite identification (MetID) after concomitant omeprazole/D3-omeprazole administration, mouse plasma and brain
Design: species or system Male ICR mice; key to D, i.p. route (brain): found / not found / E, i.v. route (brain): found / not found / F, p.o. route (brain): found / not found / A, i.p. route (plasma): found / not found / B, i.v. route (plasma): found / not found / C, p.o. route (plasma): found / not found: O, found; -, not found
Experimental: The LC–QTOF-MS system was consisted of a chromatographic pump system (Shimadzu CBM–20A/LC–20AD, Shimadzu Scientific Instruments, Riverwood Dr, Columbia, SC, USA), an auto-sampler system (Eksigent CTC HTS PAL, Sciex, Redwood City, CA, USA), equipped with a mass spectrometer (TripleTOF^TM 5600, Sciex, Redwood City, CA, USA). Chromatographic separation was performed using reversed-phase C18 columns (Phenomenex® Kinetex XB–C18 column; 2.1 × 50 mm for bioanalytical sample quantification and 2.1 × 100 mm for MetID). The HPLC mobile phase was comprised of distilled/deionized water containing 0.1% formic acid (phase A) and acetonitrile containing 0.1% formic acid (phase B) with a binary gradient program. The LC–gradient was optimized as follows: 3.2 min for the quantification (0–0.5 min, 5% B; 0.5–1.2 min, 5–95% B; 1.2–1.4 min, 95% B; 1.4–1.5 min, 95–5% B; and 1.5–3.2 min, 5% B with a flow rate of 0.4 mL/min) and 23 min for MetID (0–1 min, 5% B; 1–13 min, 5–40% B; 13–13.5 min, 40–45% B; 13.5–15.5 min, 45–90% B; 15.5–17.9 min, 90% B; 17.9–18 min, 90–5% B; and 18–23 min, 5% B with a flow rate of 0.3mL/min). In particular, the LC separation conditions for MetID studies were optimized where the peaks of metabolites were separated as much as possible. This was critical in searching for any relevant metabolites originated from omeprazole with unique isotope ratio 1:1.
The single reaction monitoring at high sensitivity option (SRMHS) in the product ion scan was used for the quantification of PK as well as MetID samples. The information-dependent analysis (IDA) method including high resolution TOF full scan and seven unique information-dependent product ion scans were performed for the MetID study. The ion spray voltage (ISVF) was set at 5500 V. The source gas (nebulizer [GS1, ion source gas1] and heater [GS2, ion source gas2]) was set at 50 psi, and the source temperature was set at 500 °C with the curtain gas (CUR) flow of […].
A separate in vivo MetID study was conducted. A total of 50 mg/kg (1:1 ratio of omeprazole and D3–omeprazole) was given through each administration route (p.o., i.v. and i.p.). After administration, blood and brain tissue sampling was conducted in the same manner as the previous PK studies. The collected samples were stored at −80 °C until analysis.
The plasma samples obtained from the study dosed with 50 mg/kg were collected according to the Hamilton pooling method. The pooled plasma sample (a total of 274 μL) was transferred to a clean tube, and 1 mL of ACN was added. The pretreated samples were centrifuged at 10,000 rpm for 5 min, and 1100 μL of the supernatant was evaporated to dryness under vacuum in a centrifugal evaporator (CVE–3110, Eyela, Tokyo, Japan) connected to cold trap (UT–1000, Eyela, Tokyo, Japan). The dried residue was re-constituted, shaken and centrifuged. After centrifugation, the supernatant was transferred to an LC–vial for analysis.
The metabolites of omeprazole were investigated using an LC–QTOF–MS assay. […] In this case, any metabolites having a mass difference of 3 daltons between omeprazole and its stable isotope D3–omeprazole were thoroughly searched as possible drug-related metabolites.

COc1ccc2[nH]c([S+]([O-])Cc3ncc(C)c(OC)c3C)nc2c1 (stereo not drawn) [Omeprazole]
O: D, i.p. route (brain): found / not found (50 mg/kg omeprazole/D3-omeprazole 1:1, i.p., mouse brain) | A, i.p. route (plasma): found / not found (50 mg/kg omeprazole/D3-omeprazole 1:1, i.p., mouse plasma) | E, i.v. route (brain): found / not found (50 mg/kg omeprazole/D3-omeprazole 1:1, i.v., mouse brain) | B, i.v. route (plasma): found / not found (50 mg/kg omeprazole/D3-omeprazole 1:1, i.v., mouse plasma) | F, p.o. route (brain): found / not found (50 mg/kg omeprazole/D3-omeprazole 1:1, p.o., mouse brain) | C, p.o. route (plasma): found / not found (50 mg/kg omeprazole/D3-omeprazole 1:1, p.o., mouse plasma)
